Here are results for eight compounds from patent US20230100941A1, “MOLECULES TARGETING MUTANT RAS PROTEIN” (AELIN THERAPEUTICS, priority 2020, published 2023).

Ends that are not written are not given here.

Series [1] deals with T1, G12V mutant KRAS (Homo sapiens, UniProt P01116, G12V).
T1 construct: made in house; host or cells: cell-free: PURExpress In Vitro Protein Synthesis Kit (New England Biolabs), linear T7 PCR template
As to the kind of experiment: In vitro translation assay with streptavidin pull-down of biotinylated pept-ins, Western blot for KRAS. The format is binding. The following applies: 10 μM biotinylated pept-in. The protocol: (§1) In vitro translation assays were performed using the PURExpress® In Vitro Protein Synthesis Kit (New England Biolabs) according to the manufacturer's instructions. Briefly, linear DNA fragments containing T7 promotor and terminator sequences flanking the KRAS coding sequence were generated using PCR and purified using the MinElute PCR Purification Kit (Qiagen). 250 ng of linear DNA was subsequently used for the in vitro translation reaction, which was performed for 2 hours at 37° C. with shaking (1000 rpm). Indicated biotinylated pept-ins were mixed in the translation reactions from a 5 mM stock solution in 6M Urea to a final concentration of 10 μM. Upon completion of the translation reaction, biotinylated pept-ins were captured from the reaction mix using Streptavidin coated beads (Pierce) during 90 min at room temperature. Beads were next washed with TBS containing 0.1% Tween 20 and bound proteins were finally boiled off in 1×SDS loading dye (Bio-Rad) in TBS buffer. Proteins were resolved using Any kD 15-well Mini-PROTEAN gels (Bio-Rad) during SDS-PAGE and probed for KRAS after Western blotting using a mouse monoclonal KRAS-specific antibody (SC-30, Santa Cruz Biotechnology), which was detected with an HRP-coupled anti-mouse secondary antibody using chemiluminescence on a Bio-Rad Chemidoc MP imaging instrument.
(§2) To mimic this in vitro, we devised an in vitro translation setup producing either wild-type or mutant (G12V, G12C, G12D or G13D) KRAS in the presence of biotinylated RAS-targeting pept-ins. This allowed us to perform a streptavidin pull-down to capture the biotinylated pept-ins from the translation reaction and perform SDS-PAGE and Western blotting to probe the pulled-down fraction for the presence of KRAS. The biotinylated version of pept-in 04-004-N001, i.e. 04-004-N011, which harbours an APR window sequence derived from a wild-type APR, is predicted to target all RAS proteins independently from their mutation status.
(In general: Immunoblotting shows a protein as a band on a membrane.)

For series [2], the target named is T2, G12C mutant KRAS (Homo sapiens, UniProt P01116, G12C).
T2 construct: made in house; host or cells: cell-free: PURExpress In Vitro Protein Synthesis Kit (New England Biolabs), linear T7 PCR template
Described as above. Format: binding. The note with it: 10 μM biotinylated pept-in. How it is done: as §1, §2

Series [3] can be described thus: Single-dose viability screen on adherently growing (2D) NCI-H441 cells (CellTiter Blue). The format is cell-based, human. The following applies: 25 μM single dose, adherent NCI-H441, compared to vehicle (30 mM Urea); read-out: decrease in viability after 4 days of exposure. How it is done: For the single-dose viability screen on adherent cells, 4000 cells were seeded per well in black μclear® Cellstar® F-bottom 96-well plates (Greiner) in 100 μL full growth medium. The day after seeding, growth medium was replaced with full growth medium containing the indicated pept-in at a fixed final dose of 25 μM. Technical duplicates were included for all experimental pept-in conditions. 2 and 4 days after treatment viability was assessed using the CellTiter Blue reagent (Promega) according to the manufacturer's instructions, with the following adaptation: CellTiter Blue reagent was diluted 1 in 2 in PBS. Readout was performed on a Clariostar plate reader (BMG). Dose-response assays were performed with the following adaptations: pept-ins were tested in dose-response using a 1 in 2 dilution series with 50 μM being the highest final concentration used. Furthermore, a single viability read-out was performed 3 days after treatment using the Celltiter Glo reagent (Promega) according to the manufacturer's instructions, with the following adaptation: CellTiter Glo reagent was diluted 1 in 4 in PBS.
To assess pept-in activity on the viability of RAS-mutant tumor cells, we used adherent NCI-H441 lung adenocarcinoma cells which harbor a G12V mutation in KRAS. To verify that this cell line was indeed dependent on KRAS for its growth, we used SAH-SOS-1A as a positive control. SAH-SOS-1A is a peptidic compound whose design is based on a stabilized helix from son of sevenless 1, the canonical guanine exchange factor for KRAS (Leshchiner et al. Proc Natl Acad Sci U S A. 2015, vol. 112(6), 1761-6).
Pept-ins were screened at a single dose of 25 μM (corresponds to final concentration of 30 mM Urea) and viability was measured after 2 and 4 days of exposure using the CellTiter Blue reagent. […] Hit rates and potencies for the other templates tested were considerably lower. […] One of these pept-ins (04-004-N001) harbours an APR window sequence derived from another APR of RAS, that is thus present in both G12 mutant and wild-type RAS, while the other four pept-ins (04-006-N001, 04-014-N001, 04-015-N001 and 04-033-N001) harbour an APR window sequence that is derived from and contains a G12V mutant site.
(The colour change of resazurin is a common sign of viable cells or microbes.)

For series [4], the system named is SW620 tumor. In words: In vivo SW620 xenograft model of human KRAS G12V colorectal cancer. The following applies: for average tumor volume at day 22, 20 μg dosing group / average tumor volume at day 22, 200 μg dosing group: intratumoral injection three times per week. The arrangement: species or system mouse. The protocol:
Female NCr nu/nu mice (8 to 12 weeks) were inoculated with 1×10^6 SW620 tumor cells in 50% Matrigel subcutaneously in the hind flank. The cell Injection Volume was 0.1 mL/mouse. When tumors reached an average size of 100-150 mm^3 a pair match was performed, and treatment started. Group sizes were N=6 for the non-treated group, N=5 for the vehicle groups and N=8 for the pept-in and positive control groups. Tumor growth was monitored by caliper measurement twice per week. Model response was monitored by Irinotecan dosed once per week at 100 mg/kg intraperitoneally for 3 weeks.
To assess whether the RAS-targeting pept-ins are able to attenuate growth of KRAS G12V-driven tumors in vivo, a subcutaneous xenograft model of human KRAS G12V colorectal cancer (SW620) was used. Once the tumors reached 100-150mm^3 in size, pept-ins were administered directly into the tumor mass by intratumoral injection three times per week during two weeks at two different doses (20 μg and 200μg).
In general terms: In xenograft studies the graft and the host belong to different species.

The subject of series [5] is RASless MEFs expressing KRAS G12V. In words: Spheroid efficacy on RASless MEF panel. Format: cell-based, mouse. The note with it: spheroids, 5 days of exposure. How it is done:
(§3) For the single-dose viability screen on spheroid cultures, 1000 cells were seeded per well in black Ultra-Low Attachment (ULA) round-bottom 96-well plates (Corning) in 75 μL full growth medium. The day after seeding, spheroids were treated by addition of 50 µl of full growth medium containing the indicated test compounds so that the final concentration after adding was 25 μM. Technical duplicates were included for all experimental pept-in conditions 5 days after treatment viability was assessed using the CellTiter Glo 3D reagent (Promega) according to the manufacturer's instructions, with the following adaptation: 80 μL of reagent was added per well. Readout was performed on a Clariostar plate reader (BMG). For dose-response assays using RASless MEFs, cells were seeded at 1000 (G12V and G12C) or 2000 (wild-type and BRAF V600E) in Matrigel-containing medium, in order to obtain equally viable spheroids at start of treatment, 24 hrs later. […]
RAS mutant-selectivity on cellular efficacy was assessed using the isogenic RASless mouse embryonic fibroblast (MEF) panel. […] The panel assessed included the common clinical KRAS variants expressed as transgene (WT, G12V and G12C) and an additional cell line dependent on the expression of BRAF V600E for proliferation.
Efficacy of RAS-targeting pept-ins on MEFs growing as spheroids was assessed after 5 days of exposure. […]

The test system of series [6] is NCI-H441 cells growing as suspension spheroid cultures. As to the kind of experiment: Single-dose viability screen on NCI-H441 suspension spheroid cultures (3D, CellTiter Glo 3D). Format: cell-based, human. The note with it: 25 μM single dose, 5 days. How it is done:
as §3, with “(BMG).” for “(BMG). For dose-response assays using RASless MEFs, cells were seeded at 1000 (G12V and G12C) or 2000 (wild-type and BRAF V600E) in Matrigel-containing medium, in order to obtain equally viable spheroids at start of treatment, 24 hrs later.”
As previous reports have shown that adherent growth of KRAS mutant cells lines might attenuate their sensitivity to KRAS inhibition or knockdown (Fujita-Sato et al. Cancer Res. 2015, vol. 75, 2851-62; Patricelli et al. Cancer Discov. 2016, vol. 6, 316-29; Vartanian et al. J Biol Chem. 2013, vol. 288, 2403-13), we complemented the screen on adherently growing NCI-H441 cells with a screen on suspension spheroid cultures of the same cell line. […] Viability of the spheroid cultures was determined after 5 days of exposure using the CellTiter Glo 3D reagent from Promega. […]

Take “04-006-N007: biotinylated version of a biologically active pept-in harbouring an APR window containing the G12V mutant site (KVVVGAVKGSKVVVGAVK; also: biotinylated, site not given here)”: in series [1], the “pull-down of G12V mutant KRAS” value was “notable pull-down was only observed for the G12V mutant KRAS”.
Regarding “04-015-N026: biotinylated version of a biologically active pept-in harbouring an APR window containing the G12V mutant site (KVVVGAVGKGSKVVVGAVGK; also: biotinylated, site not given here)”, in series [1], the “pull-down of G12V mutant KRAS” value was “notable pull-down”. The “pull-down of G12C mutant KRAS” value in series [2] was “notable pull-down”.
Regarding “04-033-N003: biotinylated version of a biologically active pept-in harbouring an APR window containing the G12V mutant site (KVVVGAVGVGKGSKVVVGAVGVGK; also: biotinylated, site not given here)”, in series [1], the “pull-down of G12V mutant KRAS” value was “notable pull-down was only observed for the G12V mutant KRAS”.
Consider `CC(=O)N[C@@H](CCCCN)C(=O)N[C@H](C(=O)N[C@H](C(=O)N[C@H](C(=O)NCC(=O)N[C@@H](C)C(=O)N[C@H](C(=O)NCC(=O)N[C@@H](CCCCN)C(=O)NCC(=O)N[C@@H](CO)C(=O)N[C@@H](CCCCN)C(=O)N[C@H](C(=O)N[C@H](C(=O)N[C@H](C(=O)NCC(=O)N[C@@H](C)C(=O)N[C@H](C(=O)NCC(=O)N[C@@H](CCCCN)C(N)=O)C(C)C)C(C)C)C(C)C)C(C)C)C(C)C)C(C)C)C(C)C)C(C)C` [04-015-N001], for which the cytotoxicity in series [3] is at least 75%. For the same compound, in series [4], the “average tumor volume at day 22, 20 μg dosing group” value is “significant reduction in average tumor volume” and the “average tumor volume at day 22, 200 μg dosing group” value is given as “significant reduction in average tumor volume”. For the same compound, the “reduction in tumor growth (comparison between pept-ins)” value in series [4] (intratumoral injection, 20 μg and 200 μg) was “strongest reduction in tumor growth”.
As to Ac-KLSVFAIKGSKLSVFAIK-NH2 [04-004-N001], the cytotoxicity in series [3] was at least 75%. In addition, the “efficacy on MEFs expressing KRAS G12V” value in series [5] is given as “notable increased efficacy”. Also, in series [4], the “average tumor volume at day 22, 20 μg dosing group” value is given as “only significant for the 200 μg dosing group” and the “average tumor volume at day 22, 200 μg dosing group” value was “significant”.
On to “Ac-KLVVVGAVKGSKLVVVGAVK-NH2 [04-014-N001]”, for which, in series [3], the cytotoxicity is at least 75%. Moreover, the “activity in the spheroid setting” value in series [6] is “did not display activity”.
On to “Ac-KVVVGAVGVGKGSKVVVGAVGVGK-NH2 [04-033-N001]”, for which, in series [3], the cytotoxicity is at least 75%.
Still for that read-out and setting: in the case of Ac-KVVVGAVKGSKVVVGAVK-NH2 [04-006-N001] it was at least 75%.
